Results published in ChEMBL document CHEMBL1201862, “PubChem BioAssay data set” (2004).
Calls of active or inactive are those of the source.

Tests used:
[1] = suppression of NO production in INS-1E cells – cell-based, Griess absorbance, dry powder, set 3, dose response (AID 488870); assay type: functional; settings: Rattus norvegicus
INS1 = experiment: suppression of NO production in INS-1E cells – cell-based, Griess absorbance, dry powder, set 2, dose response (AID 488868); assay type: functional; settings: Rattus norvegicus
CHO = CHO cell viability loss, potency – luminescence, cytotoxicity control for TLR9-MyD88 binding inhibitor project, dose response (AID 588339); assay type: functional, cell-based, hamster; settings: Cricetulus griseus;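 note: CHO cells stably coexpressing TLR9 and MyD88 fusions from primary screen; compound exposure lasted 48 hours before viability readout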
[2] = target: T1, E3 ubiquitin-protein ligase XIAP (Homo sapiens, UniProt P98170); experiment: Counter Screen using XIAP-Bir3 for Chemical Antagonists of Bir1/2 domains of IAP-family anti-apoptotic proteins. [Related pubchem assays (depositor defined):AID1018, AID1449, AID1514, AID1638, AID1749, AID1750, AID488957, AID488963]
Troponin, cardiac muscle = Troponin, cardiac muscle (Homo sapiens, UniProt P19429+P45379+P63316); experiment: Fluorescence-based biochemical high throughput dose response assay for activators of the calcium sensitivity of cardiac Regulated Thin Filaments (RTF). [Related pubchem assays (depositor defined):AID493008, AID493018, AID504382, AID504383]; assay type: protein-complex assay
[3] = target: T1, E3 ubiquitin-protein ligase XIAP; experiment: small molecules displacing peptide from XIAP – biochemical, IAP family, fluorescence polarization (AID 1018); assay type: functional
[4] = target: Heat shock protein HSP 90-alpha (Homo sapiens, UniProt P07900); assay type: functional, organism-based
Streptokinase A = target: T2, Streptokinase A (Streptococcus pyogenes serotype M1, UniProt P10520); experiment: viability-normalized secreted streptokinase activity reduction – plasminogen activation absorbance, OD405, dose response (AID 1914); assay type: functional, Streptococcus pyogenes M1 GAS;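 note: secreted streptokinase activity via plasminogen activation per viability signal from cell pellet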
T2 sequence (P10520 whole entry): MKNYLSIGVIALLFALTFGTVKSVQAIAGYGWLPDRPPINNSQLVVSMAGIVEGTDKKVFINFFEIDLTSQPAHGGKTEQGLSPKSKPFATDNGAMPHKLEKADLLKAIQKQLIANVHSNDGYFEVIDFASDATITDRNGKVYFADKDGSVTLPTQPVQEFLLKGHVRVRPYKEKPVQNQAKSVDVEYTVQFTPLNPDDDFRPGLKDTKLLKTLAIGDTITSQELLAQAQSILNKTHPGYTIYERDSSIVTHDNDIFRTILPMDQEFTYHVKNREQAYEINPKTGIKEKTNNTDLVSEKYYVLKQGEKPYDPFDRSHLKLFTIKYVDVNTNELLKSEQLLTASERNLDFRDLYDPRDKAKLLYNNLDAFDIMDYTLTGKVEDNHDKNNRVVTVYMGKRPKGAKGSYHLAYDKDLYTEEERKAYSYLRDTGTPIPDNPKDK

HSP90 = HSP90 (Plasmodium falciparum 3D7, UniProt Q8IL32); assay type: functional, organism-based
[5] = target: T3, Luciferin 4-monooxygenase (Photinus pyralis, UniProt P08659); experiment: inhibition of purified Photinus pyralis luciferase – biochemical, luminescence, dose response (AID 1891)
[6] = target: Dual specificity tyrosine-phosphorylation-regulated kinase 1A (Rattus norvegicus, UniProt Q63470); assay type: biochemical, Homo sapiens
[7] = Luminescence Cell-Based Dose Confirmation HTS to Identify Inhibitors of Platelet Dense Granule Release. [Related pubchem assays: 1663 (Primary HTS), 1678 (Summary of Project)]; assay type: functional
Streptococcus = experiment: GAS UMAA2166 growth inhibition – luminescence, BacTiterGlo, counter-screen for streptokinase expression inhibitor project, dose response (AID 1915); assay type: functional, organism-based;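 note: potency for reduction of bacterial viability or growth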
[8] = target: Voltage-gated inwardly rectifying potassium channel KCNH2 (Homo sapiens, UniProt Q12809); settings: Potency;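 note: confirmatory quantitative high-throughput screen measuring inhibition of hERG channel activity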
[9] = THP-1 cell cytotoxicity, dose response, cytotoxicity control for non-replicating M. tuberculosis project (AID 489025); assay type: functional
cells [10] = experiment: cells
cells [11] = assay type: functional
[12] = NIH-3T3 fibroblast cytotoxicity, dose response, cytotoxicity control, cell-based, fluorescence, Alamar Blue, secondary assay (AID 2327); assay type: functional;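 note: NIH-3T3 mouse fibroblasts cultured with fluconazole at 8 µg/mL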
[13] = target: T4, Oxysterols receptor LXR-beta (Homo sapiens, UniProt P55055); assay type: functional, cell-based;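 note: Cell-based luminescence dose-response assay of agonist activity at LXR, run as a confirmatory counterscreen to a daf-12 agonist screen; HEK293 cells with Gal4-LXR fusion and GAL4-driven luciferase reporter; agonist potency from rising luciferase signal of a Gal4-LXR reporter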
T4 sequence (P55055 whole entry): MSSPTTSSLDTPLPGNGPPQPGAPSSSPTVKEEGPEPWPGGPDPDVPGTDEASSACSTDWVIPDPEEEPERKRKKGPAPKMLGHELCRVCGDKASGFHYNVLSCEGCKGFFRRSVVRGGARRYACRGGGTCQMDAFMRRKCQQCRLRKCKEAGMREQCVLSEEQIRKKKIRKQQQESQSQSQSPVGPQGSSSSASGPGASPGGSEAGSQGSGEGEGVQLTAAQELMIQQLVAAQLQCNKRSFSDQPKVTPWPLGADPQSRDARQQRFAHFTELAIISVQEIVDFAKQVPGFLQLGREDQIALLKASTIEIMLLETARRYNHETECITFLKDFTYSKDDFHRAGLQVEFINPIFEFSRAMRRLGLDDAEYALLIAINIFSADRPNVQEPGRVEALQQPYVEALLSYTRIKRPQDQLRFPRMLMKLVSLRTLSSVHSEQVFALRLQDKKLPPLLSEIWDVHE

[14] = alpha-synuclein stem-loop luciferase translation blockers – H4 neuroglioma cells, luminescence, confirmation (AID 1988); assay type: functional, cell-based
HT-1080 = experiment: HT1080 cell viability loss – fluorescence readout (AID 620); assay type: functional, cell-based; settings: Homo sapiens
[15] = HepG2 cell cytotoxicity, dose response, cytotoxicity control for non-replicating M. tuberculosis project (AID 489018); assay type: functional; settings: Mycobacterium tuberculosis
[16] = target: T3, Luciferin 4-monooxygenase; experiment: Counter Screen for Luciferase-based Assay Positives. [Related pubchem assays: 620, 618, 411 ]
[17] = fluconazole-exposed Candida albicans growth modulators – fluorescence, retest, confirmation (AID 2467); assay type: functional, cell-based
[18] = target: Dual specificity protein kinase CLK1 (Homo sapiens, UniProt P49759); experiment: inhibition of human CLK1 activity – biochemical, cherry-picked samples, selectivity assay for Dyrk1A inhibitor project, dose response (AID 588811)
[19] = Vero E6 cell cytotoxicity, dose response, cytotoxicity control for non-replicating M. tuberculosis project, secondary assay (AID 492998); assay type: functional, VeroE6; settings: Vero C1008
[20] = target: T5, Endoribonuclease toxin MazF (Escherichia coli K-12, UniProt P0AE70); experiment: substrate-only fluorescence increase artefacts – biochemical, single-stranded RNase substrate, counter-screen for MazEF activator project, dose response (AID 588502); assay type: functional
[21] = target: T5, Endoribonuclease toxin MazF; experiment: activation of MazEF endoribonuclease cleavage – biochemical, fluorescence, single-stranded RNA substrate, uHTS hits, dose response (AID 588481); assay type: functional
[22] = target: Glycogen synthase kinase-3 alpha (Homo sapiens, UniProt P49840); experiment: Inhibition of Human GSK-3 alpha Activity Measured in Biochemical System Using Microfluidics - 2063-06_Inhibitor_Dose_DryPowder_Activity. [Related pubchem assays (depositor defined):AID2709]
[23] = target: Glycogen synthase kinase-3 beta (Homo sapiens, UniProt P49841); experiment: Inhibition of Human GSK-3 beta Activity Measured in Biochemical System Using Microfluidics - 2063-05_Inhibitor_Dose_DryPowder_Activity. [Related pubchem assays (depositor defined):AID2709]
[24] = target: T6, Heat shock factor protein 1 (Mus musculus, UniProt P38532); experiment: enhancement of HSF1-driven luciferase signal – cell-based, NIH3T3, luminescence, dose retest, confirmation (AID 435004); assay type: functional;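 note: stress induced by proteasome inhibitor MG132 added 30 min after compound; luciferase reporter driven by HSF1 response element in NIH3T3 cells; actives raise luminescence as potentiators of the MG132 stress response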
T6 sequence (P38532 whole entry): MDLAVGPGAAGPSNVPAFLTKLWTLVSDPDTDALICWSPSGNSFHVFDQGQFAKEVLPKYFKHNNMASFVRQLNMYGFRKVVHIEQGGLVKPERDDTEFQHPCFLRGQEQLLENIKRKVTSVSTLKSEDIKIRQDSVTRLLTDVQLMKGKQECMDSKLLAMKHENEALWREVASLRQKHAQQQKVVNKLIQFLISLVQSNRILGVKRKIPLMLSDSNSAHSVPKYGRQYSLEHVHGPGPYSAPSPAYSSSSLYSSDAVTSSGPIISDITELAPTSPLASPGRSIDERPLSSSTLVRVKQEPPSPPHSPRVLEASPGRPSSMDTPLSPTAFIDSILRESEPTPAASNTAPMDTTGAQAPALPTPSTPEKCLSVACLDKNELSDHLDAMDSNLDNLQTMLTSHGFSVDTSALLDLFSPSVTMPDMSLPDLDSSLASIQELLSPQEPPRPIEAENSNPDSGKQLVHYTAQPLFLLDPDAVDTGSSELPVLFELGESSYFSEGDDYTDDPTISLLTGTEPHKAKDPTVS

Beta-galactosidase = Beta-galactosidase (Escherichia coli, UniProt Q8VNN2); experiment: detection-enzyme interference by beta-gal modulators – biochemical, E. coli enzyme, set 3, artefact control for CCR6 antagonist project, dose response (AID 504712); assay type: functional
[25] = target: T7, C-C chemokine receptor type 6 (Homo sapiens, UniProt P51684); experiment: antagonism of CCR6 beta-arrestin recruitment – cell-based, luminescent beta-arrestin readout, dose response (AID 504728); assay type: functional
T7 sequence (P51684 whole entry): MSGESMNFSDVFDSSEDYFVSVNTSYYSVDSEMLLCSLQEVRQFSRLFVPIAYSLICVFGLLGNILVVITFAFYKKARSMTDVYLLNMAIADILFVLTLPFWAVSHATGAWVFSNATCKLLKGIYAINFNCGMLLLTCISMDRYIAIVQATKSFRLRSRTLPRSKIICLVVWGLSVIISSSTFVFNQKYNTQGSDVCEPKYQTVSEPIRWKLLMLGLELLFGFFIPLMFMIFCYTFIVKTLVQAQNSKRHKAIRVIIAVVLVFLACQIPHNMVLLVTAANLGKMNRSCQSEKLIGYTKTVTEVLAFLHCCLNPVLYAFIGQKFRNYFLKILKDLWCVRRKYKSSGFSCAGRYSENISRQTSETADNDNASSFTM

[26] = target: C-X-C chemokine receptor type 5 (Homo sapiens, UniProt P32302); experiment: inhibition of CXCL13-driven CXCR5 beta-arrestin recruitment – cell-based, luminescence, CHO-K1 PathHunter, selectivity assay for CCR6 antagonist project, SAR follow-up (AID 540340); assay type: functional
Apelin receptor = Apelin receptor (Homo sapiens, UniProt P35414); experiment: apelin receptor antagonists, arrestin read-out – cell-based, luminescent, enzyme-fragment complementation, selectivity assay for CCR6 antagonist project, SAR follow-up (AID 588359); assay type: functional
[27] = target: T7, C-C chemokine receptor type 6; experiment: analog antagonism of CCR6 beta-arrestin signaling – cell-based, luminescent beta-arrestin readout, SAR follow-up (AID 540334); assay type: functional

T5 sequence (P0AE70 whole entry): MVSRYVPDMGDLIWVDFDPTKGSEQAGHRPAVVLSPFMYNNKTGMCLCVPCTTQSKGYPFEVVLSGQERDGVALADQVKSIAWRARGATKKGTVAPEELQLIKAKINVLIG
T1 sequence (P98170 whole entry): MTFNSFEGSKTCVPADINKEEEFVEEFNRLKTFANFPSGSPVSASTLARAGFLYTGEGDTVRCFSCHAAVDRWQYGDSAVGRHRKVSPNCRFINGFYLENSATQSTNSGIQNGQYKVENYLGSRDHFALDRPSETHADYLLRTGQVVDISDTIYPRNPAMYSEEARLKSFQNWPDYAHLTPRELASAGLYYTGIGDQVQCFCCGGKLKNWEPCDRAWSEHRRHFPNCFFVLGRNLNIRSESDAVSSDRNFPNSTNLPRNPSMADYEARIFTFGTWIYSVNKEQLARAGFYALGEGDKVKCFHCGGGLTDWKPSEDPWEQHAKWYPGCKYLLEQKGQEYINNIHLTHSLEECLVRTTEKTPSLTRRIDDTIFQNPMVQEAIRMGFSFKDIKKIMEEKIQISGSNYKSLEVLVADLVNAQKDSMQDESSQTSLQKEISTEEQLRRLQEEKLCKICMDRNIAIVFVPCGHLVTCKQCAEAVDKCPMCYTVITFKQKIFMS
T3 sequence (P08659 whole entry): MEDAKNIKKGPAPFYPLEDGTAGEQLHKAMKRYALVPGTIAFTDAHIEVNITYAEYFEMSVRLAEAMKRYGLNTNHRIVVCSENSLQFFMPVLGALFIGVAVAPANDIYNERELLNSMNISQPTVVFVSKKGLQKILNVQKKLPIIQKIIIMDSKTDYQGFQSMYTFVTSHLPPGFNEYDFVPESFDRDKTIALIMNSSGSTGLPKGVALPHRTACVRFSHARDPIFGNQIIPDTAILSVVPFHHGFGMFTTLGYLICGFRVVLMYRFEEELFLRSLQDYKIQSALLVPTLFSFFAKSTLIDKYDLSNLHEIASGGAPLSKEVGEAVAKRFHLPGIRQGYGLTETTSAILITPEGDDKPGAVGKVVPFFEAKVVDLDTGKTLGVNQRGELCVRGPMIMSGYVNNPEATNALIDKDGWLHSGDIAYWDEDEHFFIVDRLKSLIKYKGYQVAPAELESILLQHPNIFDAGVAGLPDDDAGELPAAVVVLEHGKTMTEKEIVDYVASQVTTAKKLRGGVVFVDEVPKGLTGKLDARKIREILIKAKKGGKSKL
Chain of Dual specificity protein kinase CLK1 (P49759 whole entry): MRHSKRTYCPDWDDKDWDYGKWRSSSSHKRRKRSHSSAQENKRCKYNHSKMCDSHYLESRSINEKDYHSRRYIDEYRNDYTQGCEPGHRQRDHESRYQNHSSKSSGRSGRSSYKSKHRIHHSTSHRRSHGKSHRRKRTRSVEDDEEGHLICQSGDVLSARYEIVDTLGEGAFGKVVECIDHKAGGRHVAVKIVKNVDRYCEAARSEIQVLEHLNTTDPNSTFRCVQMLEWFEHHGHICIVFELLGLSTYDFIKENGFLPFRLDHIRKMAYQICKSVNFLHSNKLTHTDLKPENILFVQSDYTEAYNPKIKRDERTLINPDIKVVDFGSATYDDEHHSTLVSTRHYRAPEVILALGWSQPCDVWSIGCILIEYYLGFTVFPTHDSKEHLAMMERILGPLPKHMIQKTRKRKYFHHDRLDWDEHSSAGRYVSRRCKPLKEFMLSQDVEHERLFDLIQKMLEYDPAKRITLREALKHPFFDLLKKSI
Chain of Glycogen synthase kinase-3 beta (P49841 whole entry): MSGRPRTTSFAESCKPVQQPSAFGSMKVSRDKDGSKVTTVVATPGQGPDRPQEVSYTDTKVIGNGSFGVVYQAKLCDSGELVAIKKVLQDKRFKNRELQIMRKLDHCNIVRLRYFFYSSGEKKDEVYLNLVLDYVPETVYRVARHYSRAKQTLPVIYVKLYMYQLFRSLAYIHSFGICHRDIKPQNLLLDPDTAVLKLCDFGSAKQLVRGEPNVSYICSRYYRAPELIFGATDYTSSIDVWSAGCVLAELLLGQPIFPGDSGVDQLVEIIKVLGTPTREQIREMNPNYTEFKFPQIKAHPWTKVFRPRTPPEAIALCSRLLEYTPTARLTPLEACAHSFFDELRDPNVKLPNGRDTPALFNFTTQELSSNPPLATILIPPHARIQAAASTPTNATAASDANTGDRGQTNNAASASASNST
Chain of HSP90 (Q8IL32 whole entry): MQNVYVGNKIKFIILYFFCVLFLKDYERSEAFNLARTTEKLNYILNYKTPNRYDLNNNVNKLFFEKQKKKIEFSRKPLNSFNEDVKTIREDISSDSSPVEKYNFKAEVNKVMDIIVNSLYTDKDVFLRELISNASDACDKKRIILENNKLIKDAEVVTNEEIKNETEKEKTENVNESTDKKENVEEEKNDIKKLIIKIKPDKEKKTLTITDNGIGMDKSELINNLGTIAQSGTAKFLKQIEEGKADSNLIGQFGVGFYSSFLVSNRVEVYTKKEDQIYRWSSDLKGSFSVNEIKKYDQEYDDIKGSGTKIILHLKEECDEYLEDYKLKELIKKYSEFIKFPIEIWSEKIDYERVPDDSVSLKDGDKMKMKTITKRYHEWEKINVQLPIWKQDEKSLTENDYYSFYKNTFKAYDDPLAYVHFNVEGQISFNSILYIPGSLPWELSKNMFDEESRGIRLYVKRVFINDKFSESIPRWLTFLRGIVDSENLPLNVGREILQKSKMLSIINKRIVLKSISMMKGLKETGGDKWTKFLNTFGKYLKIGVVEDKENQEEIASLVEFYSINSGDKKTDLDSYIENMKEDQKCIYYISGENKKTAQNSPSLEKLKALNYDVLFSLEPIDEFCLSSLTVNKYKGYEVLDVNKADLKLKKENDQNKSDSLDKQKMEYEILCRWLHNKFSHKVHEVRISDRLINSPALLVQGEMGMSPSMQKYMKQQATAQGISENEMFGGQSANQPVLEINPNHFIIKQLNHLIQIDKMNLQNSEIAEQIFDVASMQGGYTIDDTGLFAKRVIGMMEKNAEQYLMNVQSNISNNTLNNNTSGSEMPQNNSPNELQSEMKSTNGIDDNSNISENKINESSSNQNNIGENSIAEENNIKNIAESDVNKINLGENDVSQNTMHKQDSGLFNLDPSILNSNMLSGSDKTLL
Chain of Beta-galactosidase (Q8VNN2 whole entry): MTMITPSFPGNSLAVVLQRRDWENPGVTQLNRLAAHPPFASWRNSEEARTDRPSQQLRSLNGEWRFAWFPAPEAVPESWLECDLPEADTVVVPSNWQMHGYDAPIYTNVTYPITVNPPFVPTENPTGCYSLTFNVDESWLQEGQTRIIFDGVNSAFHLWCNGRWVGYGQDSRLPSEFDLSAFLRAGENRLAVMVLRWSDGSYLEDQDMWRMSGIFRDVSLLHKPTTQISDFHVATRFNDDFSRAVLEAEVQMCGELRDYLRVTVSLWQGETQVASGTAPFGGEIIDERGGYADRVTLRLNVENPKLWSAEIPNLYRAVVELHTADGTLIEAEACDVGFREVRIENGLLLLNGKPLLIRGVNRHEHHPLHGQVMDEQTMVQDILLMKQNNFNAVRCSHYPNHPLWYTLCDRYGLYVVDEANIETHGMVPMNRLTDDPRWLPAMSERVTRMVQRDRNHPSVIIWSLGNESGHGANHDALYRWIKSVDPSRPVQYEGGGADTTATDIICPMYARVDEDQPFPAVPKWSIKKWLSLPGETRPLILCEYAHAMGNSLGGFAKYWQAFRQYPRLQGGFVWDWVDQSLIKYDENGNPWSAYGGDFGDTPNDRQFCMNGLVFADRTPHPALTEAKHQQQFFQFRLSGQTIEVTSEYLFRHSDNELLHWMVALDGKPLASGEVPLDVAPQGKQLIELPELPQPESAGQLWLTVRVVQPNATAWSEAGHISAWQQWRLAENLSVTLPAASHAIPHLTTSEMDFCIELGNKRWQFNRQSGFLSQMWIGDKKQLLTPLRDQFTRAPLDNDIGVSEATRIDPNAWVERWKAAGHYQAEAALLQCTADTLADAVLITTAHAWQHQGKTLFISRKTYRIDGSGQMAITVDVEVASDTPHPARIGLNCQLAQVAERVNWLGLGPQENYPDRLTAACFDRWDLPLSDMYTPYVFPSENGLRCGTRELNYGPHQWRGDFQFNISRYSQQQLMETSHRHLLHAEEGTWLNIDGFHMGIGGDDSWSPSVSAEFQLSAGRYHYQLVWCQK
Chain of Glycogen synthase kinase-3 alpha (P49840 whole entry): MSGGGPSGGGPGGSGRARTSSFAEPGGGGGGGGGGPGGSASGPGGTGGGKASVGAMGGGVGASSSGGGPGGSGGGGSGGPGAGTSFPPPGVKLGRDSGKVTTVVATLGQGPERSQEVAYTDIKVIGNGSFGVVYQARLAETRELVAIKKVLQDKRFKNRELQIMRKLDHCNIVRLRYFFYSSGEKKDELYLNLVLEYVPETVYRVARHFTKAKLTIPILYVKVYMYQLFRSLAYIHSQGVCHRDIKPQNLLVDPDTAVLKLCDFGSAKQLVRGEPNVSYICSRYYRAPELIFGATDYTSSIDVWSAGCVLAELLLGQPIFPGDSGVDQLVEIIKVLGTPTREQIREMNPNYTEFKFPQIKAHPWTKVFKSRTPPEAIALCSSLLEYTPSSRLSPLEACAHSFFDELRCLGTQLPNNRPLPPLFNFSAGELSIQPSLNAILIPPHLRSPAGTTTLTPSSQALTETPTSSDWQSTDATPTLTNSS
Chain of C-X-C chemokine receptor type 5 (P32302 whole entry, the tested form may be a part): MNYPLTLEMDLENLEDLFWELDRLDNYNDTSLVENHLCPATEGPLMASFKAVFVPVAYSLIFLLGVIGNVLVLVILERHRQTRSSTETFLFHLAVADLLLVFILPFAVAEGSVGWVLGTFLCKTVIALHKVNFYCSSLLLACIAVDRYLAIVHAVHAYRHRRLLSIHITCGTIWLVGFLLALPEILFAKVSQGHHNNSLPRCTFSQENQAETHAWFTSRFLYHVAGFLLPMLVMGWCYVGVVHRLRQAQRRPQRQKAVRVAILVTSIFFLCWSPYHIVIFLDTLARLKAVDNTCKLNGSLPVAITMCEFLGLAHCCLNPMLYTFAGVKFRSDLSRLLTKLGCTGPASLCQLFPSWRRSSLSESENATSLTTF

For C[C@@H]1CN([C@@H](C)CO)C(=O)c2cccc(NC(=O)Nc3cccc4ccccc34)c2O[C@H]1CN(C)S(=O)(=O)c1ccccc1F, the AC50 [1] was 32.7 µM (active) and the AC50 (INS1) was 48.6 µM (active).
In the case of CCC1(C)OC(c2ccccc2)=C/C(=C/C=C2C(=O)NC(=O)NC2=O)O1 (configuration not stated), the IC50 (CHO) was > 49.7 µM (inactive), the IC50 [2] was > 100 µM (inactive) and the EC50 (Troponin, cardiac muscle) was 2.38 µM (active). The IC50 [3] was > 100 µM (not active).
For COc1ccccc1/N=c1\oc2cc(O)ccc2cc1C(N)=O, the AC50 [4] was 17.3 µM (active), the EC50 (Streptokinase A) was > 150 µM (not active) and the AC50 (HSP90) was 27.5 µM (active). For the same molecule, the EC50 [5] was 1.15 µM (active), the AC50 [6] was 0.139 µM (active) and the EC50 [7] was 3.1 µM (active). For the same molecule, the EC50 (Streptococcus) was 42 µM (active).
For O=C(OCCN1CCCCC1)c1c[nH]c2ccccc12, the AC50 [8] was 20 µM (inconclusive).
With Cc1cc(NCCCn2ccnc2)n2ncc(-c3ccc(Cl)cc3)c2n1 the CC50 [9] was 22 µM (active), the EC50 (cells [10]) was > 67.6 µM (inactive) and the IC50 (cells [11]) was 11.1 µM (active). For the same molecule, the EC50 [12] was 21.8 µM (inconclusive), the EC50 [13] was > 67.6 µM (inactive) and the EC50 [14] was 9.97 µM (inconclusive). For the same molecule, the EC50 (HT-1080) was 35 µM (active), the CC50 [15] was > 20 µM (active) and the EC50 [16] was 2.18 µM (active). For the same molecule, the AC50 [6] was 2.85 µM (active), the EC50 [17] was 3.66 µM (active) and the AC50 [18] was 5.5 µM (active). For the same molecule, the CC50 [19] was 7.48 µM (active).
For Oc1nc(N/N=C\c2ccc(F)cc2)nc2ccccc12, the EC50 [20] was > 99 µM (inactive) and the EC50 [21] was 7.12 µM (active).
In the case of CCCn1nc(NC(=O)c2cccs2)c2cc3cc(OC)ccc3nc21, the AC50 [22] was 9.59 µM (active) and the AC50 [23] was 0.445 µM (active).
In the case of CN1C(=O)C(=C2CC(c3ccc(Cl)cc3)NN2)C(=O)N(C)C1=O (configuration not stated), the EC50 [24] was > 260 µM (inactive), the IC50 (Beta-galactosidase) was > 66.6 µM (inactive) and the IC50 [25] was 14.9 µM (active). The IC50 [26] was 9.24 µM (inactive), the IC50 (Apelin receptor) was 7.22 µM (active) and the IC50 [27] was 5.84 µM (active).
